Key:
[1] = biological target: T1, Aβ1-42 (Homo sapiens, UniProt P05067); experiment: Amyloid-beta disaggregation test by Thioflavin-T analysis; type: biochemical; settings: for EC50: Aβ1-42 50 µM aggregated 24 hours, then compound 0 - 500 µM for 48 hours at 37 °C, concentration disaggregating 50 % of aggregates vs control, read-out: EC50 (µM) Aβ; for disaggregation effect for amyloid-beta protein aggregates: statement in words summarising the Thioflavin-T results
T1 construct: dissolving Aβ1-42 or Tau-RD3 (Tau repeat domain 3) monomers in DMSO
T1 sequence (P05067 672-713 limits assumed): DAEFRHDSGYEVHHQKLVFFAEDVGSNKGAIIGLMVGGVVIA
Procedure: (§1) Each compound was dissolved in DMSO to a concentration of 10 mM. Then, the compounds were diluted with 6 % DMSO (in DW) for use.
(§2) Amyloid-beta and tau solutions were prepared by dissolving Aβ1-42 or Tau-RD3 (Tau repeat domain 3) monomers in DMSO to a concentration of 10 mM. Then, the solutions were diluted to 100 µM with DW and stored on ice.
(§3) Meanwhile, Thioflavin-T was dissolved in 50 mM glycine buffer (pH 8.5) to a concentration of 5 mM. Then, the solution was diluted to 5 µM with 50 mM glycine buffer (pH 8.5) and stored in the dark, protected from light.
(§4) The amyloid-beta and tau solutions prepared in Example 1.1 were each placed in 1.5 mL microcentrifuge tubes to a concentration of 50 µM or 35 µM, respectively, and then reacted at 37 °C for 24 hours.
(§5) To each 1.5 mL microcentrifuge tube in which the amyloid-beta and tau aggregation was complete, the compounds were added at concentrations ranging from 500 µM down to 0 µM by serial dilution, and then further reacted at 37 °C for 48 hours.
(§6) 25 µL of each completed reaction solution was added to each well of a 96-well fluorescence analysis plate, and 75 µL of the Thioflavin-T solution was added to each well. After reacting for 5 minutes at room temperature in the dark, the fluorescence value was measured at 450 nm (excitation) and 485 nm (emission) using a multi-mode microplate reader.
(§7) The fluorescence value of the group (control group) treated with only amyloid-beta or tau and aggregated for 72 hours was designated as 100 %. The fluorescence values measured after treating the amyloid-beta and tau aggregates (formed by reacting for 24 hours) with each compound by concentration and reacting for an additional 48 hours were converted to relative values.

[2] = biological target: Tau-RD3 (Tau repeat domain 3) (Homo sapiens, UniProt P10636); experiment: Tau disaggregation test by Thioflavin-T analysis; type: biochemical; settings: for EC50: Tau-RD3 35 µM aggregated 24 hours, then compound 0 - 500 µM for 48 hours at 37 °C, concentration disaggregating 50 % of aggregates vs control, read-out: EC50 (µM) Tau; for disaggregation effect for tau protein aggregates: statement in words summarising the Thioflavin-T results
Chain of Tau-RD3 (Tau repeat domain 3) (P10636 623-653 limits assumed): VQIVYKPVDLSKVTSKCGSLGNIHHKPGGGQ
Procedure: as §1, §2, §3, §4, §5, §6, §7

EC50 [1] [µM]	EC50 [2] [µM]	Structure (SMILES)	disaggregation effect for amyloid-beta protein aggregates [1]	disaggregation effect for tau protein aggregates [2]
> 250	> 250	Cc1ncsc1C1=C(c2cccnc2)C(=O)c2cc(N(C)C)ccc21 [Compound 62, 6-(dimethylamino)-3-(4-methylthiazol-5-yl)-2-(pyridin-3-yl)-1H-inden-1-one]	–	–
100 to 250	> 250	CCOC(=O)c1ccccc1C1=C(c2ccccc2C)c2ccccc2C1=O [Compound 99-7, ethyl 2-(1-oxo-3-(o-tolyl)-1H-inden-2-yl)benzoate]	–	–
> 250	> 250	CNC(=O)c1ccccc1C1=C(c2ccccc2C)c2ccccc2C1=O [Compound 99, N-methyl-2-(1-oxo-3-(o-tolyl)-1H-inden-2-yl)benzamide]	–	–
< 20	20 to 100	Cc1ncsc1C1=C(c2ccc(CN3CCOCC3)cc2)C(=O)c2ccccc21 [Compound 87, 3-(4-methylthiazol-5-yl)-2-(4-(morpholinomethyl)phenyl)-1H-inden-1-one]	–	–
< 20	100 to 250	COc1cccc(OC)c1C1=C(c2cccnc2)C(=O)c2cc(OCCCc3ccccc3)ccc21 [Compound 45, 3-(2,6-dimethoxyphenyl)-6-(3-phenylpropoxy)-2-(pyridin-3-yl)-1H-inden-1-one]	–	–
< 20	< 20	Cc1ccccc1C1=C(c2c(C)cccc2C)c2ccc(O)cc2C1=O [Compound 84, 3-(2,6-dimethylphenyl)-6-hydroxy-2-(o-tolyl)-1H-inden-1-one]	remarkably excellent disaggregation effect	remarkably excellent disaggregation effect
> 250	> 250	COCCNc1ccc2c(c1)C(=O)C(c1cccnc1)=C2c1scnc1C [Compound 54, 6-((2-methoxyethyl)amino)-3-(4-methylthiazol-5-yl)-2-(pyridin-3-yl)-1H-inden-1-one]	–	–
< 20	> 250	Cc1ncsc1C1=C(c2cccnc2)C(=O)c2cc(NC3CCCN(c4ccccc4)C3)ccc21 (stereo not shown) [Compound 58, 3-(4-methylthiazol-5-yl)-6-((1-phenylpiperidin-3-yl)amino)-2-(pyridin-3-yl)-1H-inden-1-one]	–	–
20 to 100	100 to 250	Cc1cc(N2CCN(C)CC2)cc2c1C(c1ccccc1)=C(c1ccccc1)C2=O [Compound 71, 4-methyl-6-(4-methylpiperazin-1-yl)-2,3-diphenyl-1H-inden-1-one]	–	–
20 to 100	20 to 100	COc1ccc2c(c1)C(=O)C(c1cncs1)=C2c1cncs1 [Compound 83-5, 6-methoxy-2,3-di(thiazol-5-yl)-1H-inden-1-one]	–	–
20 to 100	< 20	Cc1ncsc1C1=C(c2ccc(CN3CCN(C)CC3)cc2)C(=O)c2ccccc21 [Compound 86, 2-(4-((4-methylpiperazin-1-yl)methyl)phenyl)-3-(4-methylthiazol-5-yl)-1H-inden-1-one]	–	–
< 20	< 20	Cc1cc(OCCCc2ccccc2)cc2c1C(c1scnc1C)=C(c1cccnc1)C2=O [Compound 46, 4-methyl-3-(4-methylthiazol-5-yl)-6-(3-phenylpropoxy)-2-(pyridin-3-yl)-1H-inden-1-one]	remarkably excellent disaggregation effect	remarkably excellent disaggregation effect
< 20	> 250	CN(C)c1ccc2c(c1)C(=O)C(c1ccccc1)=C2c1ccccc1 [Compound 69, 6-(dimethylamino)-2,3-diphenyl-1H-inden-1-one]	–	–
< 20	> 250	Cc1ncsc1C1=C(c2cccnc2)C(=O)c2cc(OCCCc3ccccc3)cc(O)c21 [Compound 48, 4-hydroxy-3-(4-methylthiazol-5-yl)-6-(3-phenylpropoxy)-2-(pyridin-3-yl)-1H-inden-1-one]	–	–
100 to 250	> 250	COc1cccc(OC)c1C1=C(c2cccnc2)C(=O)c2cc(O)ccc21 [Compound 45-8, 3-(2,6-dimethoxyphenyl)-6-hydroxy-2-(pyridin-3-yl)-1H-inden-1-one]	–	–
< 20	< 20	Cc1ncsc1C1=C(c2cccnc2)C(=O)c2cc(SCCCc3ccccc3)ccc21 [Compound 57, 3-(4-methylthiazol-5-yl)-6-((3-phenylpropyl)thio)-2-(pyridin-3-yl)-1H-inden-1-one]	remarkably excellent disaggregation effect	remarkably excellent disaggregation effect
> 250	> 250	Cc1ncsc1C1=C(c2cccnc2)C(=O)c2cc(NCC3CCOCC3)ccc21 [Compound 52, 3-(4-methylthiazol-5-yl)-2-(pyridin-3-yl)-6-(((tetrahydro-2H-pyran-4-yl)methyl)amino)-1H-inden-1-one]	–	–
100 to 250	> 250	O=C1C(c2ccccc2)=C(c2ccccc2)c2ccc(OCCCc3ccccc3)cc21 [Compound 78, 2,3-diphenyl-6-(3-phenylpropoxy)-1H-inden-1-one]	–	–
< 20	< 20	O=C1C(c2cncs2)=C(c2cncs2)c2ccc(OCCCc3ccccc3)cc21 [Compound 83, 6-(3-phenylpropoxy)-2,3-di(thiazol-5-yl)-1H-inden-1-one]	remarkably excellent disaggregation effect	remarkably excellent disaggregation effect

More lines, now with the values behind:

Structure (SMILES)	EC50 [1] [µM]	EC50 [2] [µM]	disaggregation effect for amyloid-beta protein aggregates [1]	disaggregation effect for tau protein aggregates [2]
Cc1ncsc1C1=C(c2cc[nH]n2)C(=O)c2cc(OCCCc3ccccc3)ccc21 [Compound 25, 3-(4-methylthiazol-5-yl)-6-(3-phenylpropoxy)-2-(1H-pyrazol-3-yl)-1H-inden-1-one]	< 20	> 250	–	–
O=C1C(c2cccnc2)=C(c2cn[nH]c2)c2ccc(OCCCc3ccccc3)cc21 [Compound 43, 6-(3-phenylpropoxy)-3-(1H-pyrazol-4-yl)-2-(pyridin-3-yl)-1H-inden-1-one]	> 250	> 250	–	–
Cc1ncsc1C1=C(c2ccccn2)C(=O)c2cc(O)ccc21 [Compound 40-4, 6-hydroxy-3-(4-methylthiazol-5-yl)-2-(pyridin-2-yl)-1H-inden-1-one]	> 250	> 250	–	–
O=C1C(c2ccc(N3CCOCC3)cc2)=C(c2ccccc2)c2ccccc21 [Compound 17, 2-(4-morpholinophenyl)-3-phenyl-1H-inden-1-one]	< 20	> 250	–	–
O=C1C(c2cccnc2)=C(c2ccccc2)c2ccccc21 [Compound 7, 3-phenyl-2-(pyridin-3-yl)-1H-inden-1-one]	< 20	> 250	–	–
O=C1C(c2ccccc2)=C(c2ccccc2)c2ccc(Cl)cc21 [Compound 12-3, 6-chloro-2,3-diphenyl-1H-inden-1-one]	100 to 250	> 250	–	–
O=C1C(c2ccccc2)=C(C2CCCCC2)c2ccccc21 [Compound 10, 3-cyclohexyl-2-phenyl-1H-inden-1-one]	> 250	> 250	–	–
Cc1ncsc1C1=C(C#N)C(=O)c2cc(OCCCc3ccccc3)ccc21 [Compound 34, 3-(4-methylthiazol-5-yl)-1-oxo-6-(3-phenylpropoxy)-1H-indene-2-carbonitrile]	> 250	100 to 250	–	–
Cc1ncsc1C1=C(c2cccnc2)C(=O)c2ccccc21 [Compound 19, 3-(4-methylthiazol-5-yl)-2-(pyridin-3-yl)-1H-inden-1-one]	> 250	100 to 250	–	–
COc1ccc2c(c1)C(=O)C(c1ccccc1)=C2c1ccccc1 [Compound 2, 6-methoxy-2,3-diphenyl-1H-inden-1-one]	< 20	> 250	–	–
O=C1C(c2ccccc2)=C(c2cccnc2)c2ccccc21 [Compound 9, 2-phenyl-3-(pyridin-3-yl)-1H-inden-1-one]	20 to 100	20 to 100	–	–
Cc1ncsc1C1=C(c2cccnc2)C(=O)c2cc(O)ccc21 [Compound 35, 6-hydroxy-3-(4-methylthiazol-5-yl)-2-(pyridin-3-yl)-1H-inden-1-one]	20 to 100	20 to 100	–	–
Cc1ncsc1C1=C(c2c[nH]nn2)C(=O)c2cc(OCCCc3ccccc3)ccc21 [Compound 31, 3-(4-methylthiazol-5-yl)-6-(3-phenylpropoxy)-2-(1H-1,2,3-triazol-4-yl)-1H-inden-1-one]	< 20	< 20	–	–
CC(=O)Oc1ccc2c(c1)C(=O)C(Br)=C2c1ccn(C)n1 [Compound 24, 2-bromo-3-(1-methyl-1H-pyrazol-3-yl)-1-oxo-1H-inden-6-yl acetate]	> 250	< 20	–	–
O=C1C(N2CCOCC2)=C(c2ccccc2)c2ccccc21 [Compound 8, 2-morpholino-3-phenyl-1H-inden-1-one]	100 to 250	20 to 100	–	–
